# Laboratory results reported in patent US11208405B2, “Pyrrole derivatives as PLK1 inhibitors” (SENTINEL ONCOLOGY LIMITED, priority 2017, dated 2021).
# Where a name gives a salt, the structure may show the parent alone.
# Assays:
# [1] = target: T1, STK16 (Homo sapiens, UniProt O75716); assay: Kinase selectivity assay (DiscoverX KinomeScreen), STK16; type: binding; details: STK16, 5 μM; read-out: % Control
# T1 construct: purchased DiscoverX
# Procedure: (§1) The compound of Example 33 was tested for off-target activity against a panel of fifty five kinases bearing functional or structural similarity to PLK1 at a concentration of 5 μM using the DiscoverX KinomeScreen assay.
# [2] = target: cytochrome P450 2C19 (Homo sapiens, UniProt P33261); assay: Cytochrome P450 inhibition, 2C19; type: in vitro ADME
# [3] = target: T2, AAK1 (Homo sapiens, UniProt Q2M2I8); assay: Kinase selectivity assay (DiscoverX KinomeScreen), AAK1; type: binding; details: AAK1, 5 μM; read-out: % Control
# T2 construct: purchased DiscoverX
# Procedure: as §1
# [4] = target: T3, PLK3 (Homo sapiens, UniProt Q9H4B4); assay: Kinase selectivity assay (DiscoverX KinomeScreen), PLK3; type: binding; details: PLK3, 5 μM; read-out: % Control
# T3 construct: purchased DiscoverX
# Procedure: as §1
# [5] = target: T4, CHUK (Homo sapiens, UniProt O15111); assay: Kinase selectivity assay (DiscoverX KinomeScreen), CHUK; type: binding; details: read-out: % Control
# T4 construct: purchased DiscoverX
# Procedure: as §1
# [6] = system: glioblastoma cell line 949094; assay: Glioblastoma cancer cell viability, cell line 949094; type: cell-based
# Procedure: (§2) Assay to Measure the Effects of Compounds of the Invention on Glioblastoma Cancer Cell Viability
# (§3) The compound of Example 33 was tested for inhibitory activity against the glioblastoma cell lines in Table 7 below.
# [7] = target: T5, AURKB (Homo sapiens, UniProt Q96GD4); assay: Kinase selectivity assay (DiscoverX KinomeScreen), AURKB; type: binding; details: read-out: % Control
# T5 construct: purchased DiscoverX
# Procedure: as §1
# [8] = target: T6, PLK2 (Homo sapiens, UniProt Q9NYY3); assay: Kinase selectivity assay (DiscoverX KinomeScreen), PLK2; type: binding; details: PLK2, 5 μM; read-out: % Control
# T6 construct: purchased DiscoverX
# Procedure: as §1
# [9] = target: T7, ULK3 (Homo sapiens, UniProt Q6PHR2); assay: Kinase selectivity assay (DiscoverX KinomeScreen), ULK3; type: binding; details: ULK3, 5 μM; read-out: % Control
# T7 construct: purchased DiscoverX
# Procedure: as §1
# [10] = system: glioblastoma cell line 946368; assay: Glioblastoma cancer cell viability, cell line 946368; type: cell-based
# Procedure: as §2, §3
# [11] = system: glioblastoma cell line 908145; assay: Glioblastoma cancer cell viability, cell line 908145; type: cell-based
# Procedure: as §2, §3
# [12] = system: glioblastoma cell line 907279; assay: Glioblastoma cancer cell viability, cell line 907279; type: cell-based
# Procedure: as §2, §3
# [13] = target: T8, CAMKK2 (Homo sapiens, UniProt Q96RR4); assay: Kinase selectivity assay (DiscoverX KinomeScreen), CAMKK2; type: binding; details: CAMKK2, 5 μM; read-out: % Control
# T8 construct: purchased DiscoverX
# Procedure: as §1
# [14] = target: hERG ion channel (Homo sapiens, UniProt Q12809); assay: Binding to the hERG ion channel
# [15] = target: cytochrome P450 3A4 (Homo sapiens, UniProt P08684); assay: Cytochrome P450 inhibition, 3A4; type: in vitro ADME
# [16] = target: T9, WNK1 (Homo sapiens, UniProt Q9H4A3); assay: Kinase selectivity assay (DiscoverX KinomeScreen), WNK1; type: binding; details: WNK1, 5 μM; read-out: % Control
# T9 construct: purchased DiscoverX
# Procedure: as §1
# [17] = target: T10, BMP2K (Homo sapiens, UniProt Q9NSY1); assay: Kinase selectivity assay (DiscoverX KinomeScreen), BMP2K; type: binding; details: read-out: % Control
# T10 construct: purchased DiscoverX
# Procedure: as §1
# [18] = target: T11, IKBKB (Homo sapiens, UniProt O14920); assay: Kinase selectivity assay (DiscoverX KinomeScreen), IKBKB; type: binding; details: read-out: % Control
# T11 construct: purchased DiscoverX
# Procedure: as §1
# [19] = target: T12, WNK4 (Homo sapiens, UniProt Q96J92); assay: Kinase selectivity assay (DiscoverX KinomeScreen), WNK4; type: binding; details: WNK4, 5 μM; read-out: % Control
# T12 construct: purchased DiscoverX
# Procedure: as §1
# [20] = target: T13, WNK3 (Homo sapiens, UniProt Q9BYP7); assay: Kinase selectivity assay (DiscoverX KinomeScreen), WNK3; type: binding; details: WNK3, 5 μM; read-out: % Control
# T13 construct: purchased DiscoverX
# Procedure: as §1
# [21] = target: T14, AURKA (Homo sapiens, UniProt O14965); assay: Kinase selectivity assay (DiscoverX KinomeScreen), AURKA; type: binding; details: read-out: % Control
# T14 construct: purchased DiscoverX
# Procedure: as §1
# [22] = target: T15, IKBKE (Homo sapiens, UniProt Q14164); assay: Kinase selectivity assay (DiscoverX KinomeScreen), IKBKE; type: binding; details: read-out: % Control
# T15 construct: purchased DiscoverX
# Procedure: as §1
# [23] = target: T16, TLK1 (Homo sapiens, UniProt Q9UKI8); assay: Kinase selectivity assay (DiscoverX KinomeScreen), TLK1; type: binding; details: TLK1, 5 μM; read-out: % Control
# T16 construct: purchased DiscoverX
# Procedure: as §1
# [24] = Stability in human hepatocytes; type: in vitro ADME
# [25] = target: T17, ROCK2 (Homo sapiens, UniProt O75116); assay: Kinase selectivity assay (DiscoverX KinomeScreen), ROCK2; type: binding; details: ROCK2, 5 μM; read-out: % Control
# T17 construct: purchased DiscoverX
# Procedure: as §1
# [26] = target: T18, WEE1 (Homo sapiens, UniProt P30291); assay: Kinase selectivity assay (DiscoverX KinomeScreen), WEE1; type: binding; details: WEE1, 5 μM; read-out: % Control
# T18 construct: purchased DiscoverX
# Procedure: as §1
# [27] = target: T19, BUB1 (Homo sapiens, UniProt O43683); assay: Kinase selectivity assay (DiscoverX KinomeScreen), BUB1; type: binding; details: BUB1, 5 μM; read-out: % Control
# T19 construct: purchased DiscoverX
# Procedure: as §1
# [28] = system: glioblastoma cell line 906868; assay: Glioblastoma cancer cell viability, cell line 906868; type: cell-based
# Procedure: as §2, §3
# [29] = target: T20, NEK11 (Homo sapiens, UniProt Q8NG66); assay: Kinase selectivity assay (DiscoverX KinomeScreen), NEK11; type: binding; details: NEK11, 5 μM; read-out: % Control
# T20 construct: purchased DiscoverX
# Procedure: as §1
# [30] = system: wild-type HeLa cell line; assay: Wild-type versus KRAS HeLa cell viability: wild-type KRAS transgene; type: cell-based; details: Homo sapiens; HeLa cells expressing wild-type KRAS, 72 hours; read-out: WT GI50
# Procedure: Assay to Measure the Effects of Compounds of the Invention on Wild-Type Versus KRAS HeLa Cell Viability
# Identifying synthetic lethal interactions between targeted small molecule therapies and characterised oncogenic mutations is a goal of modern oncology drug discovery efforts. To this end, PLK1-PBD inhibitors were tested on HeLa cells engineered to inducibly express wild-type or oncogenic KrasG12V transgenes using the FLP-in/T-Rex system (Invitrogen). Cells were plated, and then treated with or without Doxycycline to induce transgene expression, and then treated with serially-diluted PBD inhibitors. After 72 hours of incubation, cell viability was assessed using the Cell Titre Blue reagent (Promega) and a BMG Pherastar plate reader. The effect of PBD inhibition on cell viability with either wild-type or oncogenic G12V KRAS was assessed using the graphing/curve-fitting packages in GraphPad Prism.
# [31] = target: T21, NEK1 (Homo sapiens, UniProt Q96PY6); assay: Kinase selectivity assay (DiscoverX KinomeScreen), NEK1; type: binding; details: NEK1, 5 μM; read-out: % Control
# T21 construct: purchased DiscoverX
# Procedure: as §1
# [32] = target: T22, STK36 (Homo sapiens, UniProt Q9NRP7); assay: Kinase selectivity assay (DiscoverX KinomeScreen), STK36; type: binding; details: STK36, 5 μM; read-out: % Control
# T22 construct: purchased DiscoverX
# Procedure: as §1
# T6 sequence (Q9NYY3 whole entry): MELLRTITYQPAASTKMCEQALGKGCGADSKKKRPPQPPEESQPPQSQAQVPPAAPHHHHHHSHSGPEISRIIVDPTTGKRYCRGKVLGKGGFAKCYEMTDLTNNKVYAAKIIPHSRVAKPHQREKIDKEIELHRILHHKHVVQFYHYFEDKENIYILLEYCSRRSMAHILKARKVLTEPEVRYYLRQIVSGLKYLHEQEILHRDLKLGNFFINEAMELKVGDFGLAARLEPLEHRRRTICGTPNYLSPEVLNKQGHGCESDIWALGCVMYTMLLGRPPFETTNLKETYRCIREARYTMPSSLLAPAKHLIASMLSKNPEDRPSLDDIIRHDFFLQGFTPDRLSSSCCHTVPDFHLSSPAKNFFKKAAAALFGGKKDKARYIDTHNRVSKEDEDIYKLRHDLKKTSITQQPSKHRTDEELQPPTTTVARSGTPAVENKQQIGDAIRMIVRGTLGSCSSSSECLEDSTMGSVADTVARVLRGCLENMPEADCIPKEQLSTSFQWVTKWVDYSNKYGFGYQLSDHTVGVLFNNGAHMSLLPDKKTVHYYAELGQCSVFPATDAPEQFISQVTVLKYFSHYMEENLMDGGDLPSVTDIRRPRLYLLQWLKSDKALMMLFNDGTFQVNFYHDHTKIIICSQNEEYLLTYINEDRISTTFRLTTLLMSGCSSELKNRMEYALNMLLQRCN
# T7 sequence (Q6PHR2 whole entry): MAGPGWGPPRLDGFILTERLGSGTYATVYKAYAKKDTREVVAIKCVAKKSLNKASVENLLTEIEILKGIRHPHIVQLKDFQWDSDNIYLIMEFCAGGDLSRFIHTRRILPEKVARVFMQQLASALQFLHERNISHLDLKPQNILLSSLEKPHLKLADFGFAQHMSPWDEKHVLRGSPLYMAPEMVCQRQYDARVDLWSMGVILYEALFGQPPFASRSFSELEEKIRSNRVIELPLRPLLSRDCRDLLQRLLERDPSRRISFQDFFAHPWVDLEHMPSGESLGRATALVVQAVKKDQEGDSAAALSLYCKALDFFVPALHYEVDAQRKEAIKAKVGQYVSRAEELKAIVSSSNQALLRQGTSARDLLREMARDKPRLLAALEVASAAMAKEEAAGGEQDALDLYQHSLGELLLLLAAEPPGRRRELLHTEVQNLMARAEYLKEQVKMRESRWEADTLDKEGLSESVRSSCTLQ
# T14 sequence (O14965 whole entry): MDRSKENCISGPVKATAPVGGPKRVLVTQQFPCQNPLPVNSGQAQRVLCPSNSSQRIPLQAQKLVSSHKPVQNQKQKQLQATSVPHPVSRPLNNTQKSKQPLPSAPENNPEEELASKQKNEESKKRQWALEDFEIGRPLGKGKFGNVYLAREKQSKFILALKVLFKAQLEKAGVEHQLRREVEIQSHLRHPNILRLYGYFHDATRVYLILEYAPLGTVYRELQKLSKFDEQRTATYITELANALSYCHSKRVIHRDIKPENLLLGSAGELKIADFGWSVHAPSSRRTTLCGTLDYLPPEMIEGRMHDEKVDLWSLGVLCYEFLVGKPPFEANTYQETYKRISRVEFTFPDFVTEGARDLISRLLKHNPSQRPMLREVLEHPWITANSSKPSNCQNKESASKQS
# Chain of cytochrome P450 2C19 (P33261 whole entry): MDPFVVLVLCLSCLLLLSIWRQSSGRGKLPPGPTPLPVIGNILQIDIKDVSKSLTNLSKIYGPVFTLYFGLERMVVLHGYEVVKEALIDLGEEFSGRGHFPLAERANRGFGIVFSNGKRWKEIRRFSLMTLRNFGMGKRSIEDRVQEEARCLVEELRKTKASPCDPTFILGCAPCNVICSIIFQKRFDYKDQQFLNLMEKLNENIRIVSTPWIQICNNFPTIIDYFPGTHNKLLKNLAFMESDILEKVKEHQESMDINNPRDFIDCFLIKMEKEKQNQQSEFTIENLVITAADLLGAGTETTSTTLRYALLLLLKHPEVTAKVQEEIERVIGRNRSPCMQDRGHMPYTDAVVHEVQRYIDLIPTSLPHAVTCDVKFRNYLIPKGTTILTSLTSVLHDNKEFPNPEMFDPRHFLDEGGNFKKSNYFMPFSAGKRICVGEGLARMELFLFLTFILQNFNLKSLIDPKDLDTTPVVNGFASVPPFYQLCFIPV
# T16 sequence (Q9UKI8 whole entry): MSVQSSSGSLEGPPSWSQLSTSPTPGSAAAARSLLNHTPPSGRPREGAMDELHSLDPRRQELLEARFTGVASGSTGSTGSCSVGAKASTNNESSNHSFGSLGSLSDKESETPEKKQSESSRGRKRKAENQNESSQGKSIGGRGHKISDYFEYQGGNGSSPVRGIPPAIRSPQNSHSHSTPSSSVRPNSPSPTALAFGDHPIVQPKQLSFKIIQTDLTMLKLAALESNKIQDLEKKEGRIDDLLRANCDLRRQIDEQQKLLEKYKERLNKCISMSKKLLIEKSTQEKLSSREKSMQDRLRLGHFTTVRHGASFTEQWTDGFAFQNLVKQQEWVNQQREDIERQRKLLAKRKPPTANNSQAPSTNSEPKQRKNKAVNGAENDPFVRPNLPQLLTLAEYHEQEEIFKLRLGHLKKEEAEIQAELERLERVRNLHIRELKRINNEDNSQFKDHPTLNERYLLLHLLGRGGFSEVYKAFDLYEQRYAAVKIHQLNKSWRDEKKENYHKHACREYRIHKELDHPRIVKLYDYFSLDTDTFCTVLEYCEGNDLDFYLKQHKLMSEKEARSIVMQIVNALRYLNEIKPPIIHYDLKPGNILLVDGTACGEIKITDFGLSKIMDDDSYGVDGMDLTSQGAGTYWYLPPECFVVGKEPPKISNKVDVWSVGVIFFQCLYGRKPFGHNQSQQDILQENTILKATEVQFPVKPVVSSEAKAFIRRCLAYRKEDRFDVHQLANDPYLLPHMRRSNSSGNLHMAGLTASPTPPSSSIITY
# T17 sequence (O75116 whole entry): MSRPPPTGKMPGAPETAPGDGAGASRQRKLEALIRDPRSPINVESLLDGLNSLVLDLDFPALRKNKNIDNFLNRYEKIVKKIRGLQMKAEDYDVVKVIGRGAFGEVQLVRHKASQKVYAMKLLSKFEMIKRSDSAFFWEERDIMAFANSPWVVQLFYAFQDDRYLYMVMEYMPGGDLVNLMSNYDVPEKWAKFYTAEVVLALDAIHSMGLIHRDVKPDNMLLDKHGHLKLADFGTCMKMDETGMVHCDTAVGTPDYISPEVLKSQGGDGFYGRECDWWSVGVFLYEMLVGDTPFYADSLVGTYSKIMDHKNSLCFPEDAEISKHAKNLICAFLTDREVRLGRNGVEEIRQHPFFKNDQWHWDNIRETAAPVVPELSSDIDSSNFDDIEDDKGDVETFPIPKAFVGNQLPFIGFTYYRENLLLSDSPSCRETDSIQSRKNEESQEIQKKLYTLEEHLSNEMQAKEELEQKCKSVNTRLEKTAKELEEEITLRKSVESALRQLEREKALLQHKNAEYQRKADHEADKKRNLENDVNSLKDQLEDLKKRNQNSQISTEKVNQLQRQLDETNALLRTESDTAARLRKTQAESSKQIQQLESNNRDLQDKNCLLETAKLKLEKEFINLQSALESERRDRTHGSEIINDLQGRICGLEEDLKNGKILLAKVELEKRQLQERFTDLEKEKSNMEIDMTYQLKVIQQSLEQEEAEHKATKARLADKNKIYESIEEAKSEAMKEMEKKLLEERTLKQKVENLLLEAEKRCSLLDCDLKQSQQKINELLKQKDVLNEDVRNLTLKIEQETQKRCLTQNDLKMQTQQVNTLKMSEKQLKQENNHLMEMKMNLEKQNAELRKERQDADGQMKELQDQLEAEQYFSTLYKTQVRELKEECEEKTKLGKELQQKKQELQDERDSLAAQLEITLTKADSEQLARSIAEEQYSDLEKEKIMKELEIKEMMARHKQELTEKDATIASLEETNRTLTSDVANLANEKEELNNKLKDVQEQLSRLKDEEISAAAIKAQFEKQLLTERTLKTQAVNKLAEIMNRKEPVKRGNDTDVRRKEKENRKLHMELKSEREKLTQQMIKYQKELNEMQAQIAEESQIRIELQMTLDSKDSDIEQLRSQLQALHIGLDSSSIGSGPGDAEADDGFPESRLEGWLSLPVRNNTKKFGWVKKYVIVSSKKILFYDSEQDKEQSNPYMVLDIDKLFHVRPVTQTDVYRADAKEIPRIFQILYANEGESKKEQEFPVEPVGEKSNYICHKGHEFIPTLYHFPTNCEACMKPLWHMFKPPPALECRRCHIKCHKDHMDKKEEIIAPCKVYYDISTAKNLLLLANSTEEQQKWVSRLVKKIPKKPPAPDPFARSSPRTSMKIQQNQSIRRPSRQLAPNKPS
# T11 sequence (O14920 whole entry): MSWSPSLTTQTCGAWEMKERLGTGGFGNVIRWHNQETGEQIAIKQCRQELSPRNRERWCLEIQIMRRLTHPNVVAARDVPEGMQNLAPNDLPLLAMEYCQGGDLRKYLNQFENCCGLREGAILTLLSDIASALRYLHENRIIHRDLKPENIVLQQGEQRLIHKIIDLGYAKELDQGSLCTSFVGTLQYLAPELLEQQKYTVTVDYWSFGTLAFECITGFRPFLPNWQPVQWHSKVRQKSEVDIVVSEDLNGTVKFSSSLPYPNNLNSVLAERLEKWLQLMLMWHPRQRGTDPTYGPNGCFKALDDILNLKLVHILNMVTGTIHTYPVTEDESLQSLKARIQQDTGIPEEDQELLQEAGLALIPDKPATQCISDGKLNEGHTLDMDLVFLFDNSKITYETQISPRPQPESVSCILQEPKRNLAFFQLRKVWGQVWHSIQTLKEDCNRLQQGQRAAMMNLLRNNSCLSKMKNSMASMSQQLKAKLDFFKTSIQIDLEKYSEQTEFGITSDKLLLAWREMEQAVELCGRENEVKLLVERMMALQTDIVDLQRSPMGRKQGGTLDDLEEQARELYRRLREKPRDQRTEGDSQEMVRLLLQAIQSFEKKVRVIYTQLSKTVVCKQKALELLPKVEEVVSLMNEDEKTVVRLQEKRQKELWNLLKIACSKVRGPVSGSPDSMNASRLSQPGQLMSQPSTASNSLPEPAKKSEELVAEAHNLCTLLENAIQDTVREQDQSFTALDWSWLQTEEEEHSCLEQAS
smiles,measurement,setting,value
"CN(C)CCNC(=O)c1ccc(-c2ccc(-c3ccc(Cl)cc3)n2-c2ccccc2C(F)(F)F)cc1 [Example 33, 4-[5-(4-chlorophenyl)-1-[2-(trifluoromethyl)phenyl]pyrrol-2-yl]-N-[2-(dimethylamino)ethyl]benzamide Hydrochloride]",remaining activity at 5 µM,[1],92%
same,cytochrome P450 inhibition 2C19,[2],> 10 µM
same,remaining activity at 5 µM,[3],100%
same,remaining activity at 5 µM,[4],74%
same,remaining activity at 5 µM,[5],100%
same,IC50,[6],709 nM
same,remaining activity at 5 µM,[7],95%
same,remaining activity at 5 µM,[8],85%
same,remaining activity at 5 µM,[9],88%
same,IC50,[10],1400 nM
same,IC50,[11],223 nM
same,IC50,[12],27800 nM
same,remaining activity at 5 µM,[13],97%
same,binding to the hERG ion channel,[14],> 25 µM
same,cytochrome P450 inhibition 3A4,[15],> 10 µM
same,remaining activity at 5 µM,[16],97%
same,remaining activity at 5 µM,[17],85%
same,remaining activity at 5 µM,[18],100%
same,remaining activity at 5 µM,[19],91%
same,remaining activity at 5 µM,[20],100%
same,remaining activity at 5 µM,[21],83%
same,remaining activity at 5 µM,[22],75%
same,remaining activity at 5 µM,[23],99%
same,hepatocyte CLint,[24],10 µL/min/1e6 cells
same,remaining activity at 5 µM,[25],100%
same,remaining activity at 5 µM,[26],98%
same,remaining activity at 5 µM,[27],90%
same,IC50,[28],252 nM
same,remaining activity at 5 µM,[29],100%
same,GI50,[30],20 nM
same,remaining activity at 5 µM,[31],100%
same,remaining activity at 5 µM,[32],91%
